In US20100286247A1, “Methods of Protection from Oxidative Stress” (Trustees of Boston University, priority 2005, published 2010):
“Also recorded” adds a separate entry of the source. {P} = phosphate

Experiments:
SOD2 protein = experiment: Western blot analysis of antioxidant enzymes: SOD2 protein; format: cell-based, human
Experimental: Cell lysates were harvested at various intervals after T-oligo treatment in harvest buffer containing 0.25 M Tris HCl (pH 7.5), 0.375 M NaCl, 2.5% sodium deoxycholate, 1% Triton X-100, 25 mM MgCl2, 0.1 mg/ml aprotinin (Sigma, St. Louis, Mo.) and 1 mM phenylmethyl sulfonyl flouride (PMSF) (Sigma). Samples were sheared through a fine needle syringe, sonicated, centrifuged and the supernatant was isolated. Total cellular protein concentrations were determined spectrophotometrically with the Bio-Rad protein assay (Bio-Rad Laboratories, Inc, Hercules, Calif.). Equal amounts of total protein from each sample (35-65 μg) were separated by 10-15% polyacrylamide gel electrophoresis, and transferred to nitrocellulose membranes. After transfer, gels were stained with Coomassie Blue (Sigma) to ascertain evenness of loading.
Membranes were reacted with antibodies diluted in Tris-based buffer with nonfat milk powder as a blocking agent. […] Antibody binding was detected with electrochemical luminescence (ECL kit, NEN Life Science Products, Inc.) and exposure to XAR film (Eastman Kodak Co.).
Northern and western films as well as stained membranes and pictures of ethidium bromide-stained gels were digitally scanned and analyzed by densitometry. […]

[1] = test system: intracellular ROS in normal newborn human dermal fibroblasts; experiment: Dichlorofluorescein diacetate (DCF) assay of intracellular ROS, FACScan; format: cell-based; conditions: for DCF fluorescence (intracellular ROS) compared to diluent: 100 μM pTT / pCC, 40 μM TO / TOC1 / TOC2
Experimental: Normal newborn human dermal fibroblasts were cultured from foreskin specimens into DMEM supplemented with 10% CS as described above. Due to the large number of cells needed for time course experiments, and to minimize donor variability, in dichlorofluorescein diacetate FACS experiments cells from three different donors were combined.
Purified lyophilized oligonucleotides were obtained and prepared for cell treatment as described above. All treatments involved a single stimulation with T-oligo, after which cells were harvested at various times without medium changes or addition of more T-oligo. Treatment doses were 100 μM pTT and 40 μM TO except in dose-response experiments; these concentrations were determined in previous experiments to be optimal for measuring DNA damage responses using these T-oligos.^142,150,228
Complementary and scrambled oligonucleotides were chosen for each T-oligo. pAA and pCC were used as controls for pTT, and the complementary 11-base pCTAACCCTAAC (TOC1, SEQ ID NO: 22) and a scrambled sequence pGATCGATCGAT (TOC2, SEQ ID NO: 23) were used as controls for the T-oligo TO.
H2DCFDA stock solution (1 mg/ml) was thawed and diluted in Hanks' Balanced Salt Solution, 1× liquid without phenol red (GIBCO Invitrogen, Carlsbad, Calif.), to a working concentration of 100 μM immediately before use. H2DCFDA is converted by intracellular esterases to dichlorofiuorescein (DCF). When oxidized by intracellular ROS, it will fluoresce at 530 nm when excited by 480 nm light. […] All work involving DCF was conducted in minimal room light. Peaks on FACScan plots that shift to the right indicate greater fluorescence and increased ROS levels. For NADPH oxidase inhibitor studies using DPI,^237,239 the DPI stock solution was added directly to DCF treatment solution to achieve a final DPI treatment concentration of 50 μM.
Hydrogen peroxide positive controls were used to rule out saturation of the DCF probe in the T-oligo dose response experiments. Fibroblasts were exposed to 1 mM, 5 mM and 10 mM H2O2 solutions in PBS for 15 minutes following DCF incubation for 30 minutes, harvested and analyzed as described above.
The horseradish peroxidase assay data was analyzed by one-way ANOVA. DCF assay FACScan results were analyzed using Cellquest software (Becton-Dickinson, Calif.). All peak positions on x-axis of the fluorescence histogram plot were determined visually (using the software) and recorded as a number. Peak position values were then compared using one-way ANOVA.

[2] = test system: human newborn fibroblasts; experiment: Propidium iodide (PI) staining of nonviable cells; format: cell-based; conditions: doses 25-250% of standard dose (40 μM TO, 100 μM pTT); positive control 1 mM H2O2
Experimental: Propidium iodide (PI, Sigma) was used to stain nonviable cells for some experiments. PI stock solution (1 mg,/ml) was added to samples immediately after harvesting to achieve a final concentration of 2 μg/ml.
To better characterize the dose effects of different pTT and 11-base T-oligo doses, a dose response study was conducted. For each T-oligo the doses were 25-250% of the standard dose used (40 μM for TO and 100 μM for pTT). […] Panel C is a compilation of the maximum DCF peak shifts measured with each treatment: diluent, 250 μM pTT, 100 μM TO and 1 mM as the positive control. […] There is a significant difference in DCF fluorescence stimulated by the two treatments when the same doses were used (25, 40 and 100 μM) (2-way ANOVA, p=0.0038).

human dermal fibroblasts = experiment: Senescence-associated β-galactosidase (SA-β-gal) assay; format: cell-based; conditions: for SA-β-gal positive cells, result in words: up to 72 hours of treatment
Text: Subconfluent senescent fibroblasts were found by Dimri et al. to stain blue in an assay that measures β-galactosidase activity at pH 6.0.^240 As per their protocol, cells were fixed with a 2% formaldehyde and 0.2% glutaraldehyde solution, washed, and stained overnight in X-gal solution. The next day, 3-4 photographs were taken of representative fields in each plate under a 10× microscope objective using coded labels. The number of blue (senescent) cells in each photograph could then be determined in a blinded fashion. The SA-β-gal assay was performed in parallel with the DCF time-course experiments, using the same mixture of donor cells and seeding densities.

Row | Substance | SOD2 protein level (SOD2 protein; 40 μM, within several hours, up to 168 hours) | maximum amount of DCF fluorescence, TO vs pTT ([1]; 40 μM TO compared to 100 μM pTT) | DCF fluorescence (intracellular ROS) compared to diluent [1] | time measurable ROS stimulation starts ([1]; FIG. 14 donor cells, 100 μM pTT, 40 μM TO) | time of measurable ROS stimulation ([1]; FIG. 16 representative time course, donor variability) | ROS production (DCF fluorescence) relative to pTT at the same dose ([1]; within 72 hours, 25, 40 and 100 μM doses) | PI fluorescence (toxicity / nonviable cells) [2] | SA-β-gal positive cells, result in words (human dermal fibroblasts) | SOD2 protein maximal relative induction compared to diluent (SOD2 protein; 100 μM pTT, at 24 hours, three donors, mean±SEM) | cells staining positive in the SA-β-gal assay (human dermal fibroblasts; 40 μM TO or 100 μM pTT, 24-72 hours of treatment)
1 | pGTTAGGGTTAG (5' {P}, sugars by position and backbone not given here) [TO] | induced | greater than ROS stimulated by pTT-treated cells | statistically significant increase in DCF fluorescence | 36 h | ≤ 36 h | up to 1.5 times | less than that induced by the positive control; also recorded: comparable to diluent treatment | did not display S.A. β-gal activity |  | 
2 | 5′-phosphorylated thymidine dinucleotides [pTT] |  |  | statistically significant increase in DCF fluorescence |  |  |  | less than that induced by the positive control; also recorded: comparable to diluent treatment | did not result in a significant number of SA-β-gal cells; also recorded: did not display S.A. β-gal activity | 31% (±20%) | Less than 10%
